# Assay results from US20190367520A1, “NEW COMPOUND HAVING FGFR INHIBITORY ACTIVITY AND PREPARATION AND APPLICATION THEREOF” (SHANGHAI INSTITUTE OF MATERIA MEDICA, CHINESE ACADEMY OF …, priority 2016, published 2019).
# What was measured:
# [1] = target: FGFR4 kinase domain recombinant protein (Homo sapiens, UniProt P22455); assay: FGFR4 enzyme activity at molecular level (ELISA, Poly(Glu,Tyr) 4:1 substrate)
# Description: (§1) The plate was placed at 37° C. for 12-16 hours. The liquid in the well was discarded, the plate was washed, and the panel was washed three times with 200 μL/well of T-PBS (PBS containing 0.1% Tween-20) for 5 minutes each time.
# (§2) 50 μL of ATP solution diluted with reaction buffer (50 mM HEPES pH 7.4, 50 mM MgCl2, 0.5 mM MnCl2, 0.2 mM Na3VO4, 1 mM DTT) was added to each well to a final concentration of 5 μM. The compound was diluted to a suitable concentration in DMSO, 1 μL/well or containing the corresponding concentration of DMSO (negative control well), and the FGFR1, FGFR4 kinase domain recombinant protein diluted in 49 μL of reaction buffer was added to initiate the reaction. Two control wells without ATP were required for each experiment. The reaction was carried out for 1 hour at 37° C. on a shaker (100 rpm). The plate was washed three times with T-PBS. Primary antibody, PY99 dilution was added at 100 μL/well and shaken at 37° C. for 0.5 hour. The plate was washed three times with T-PBS. Secondary antibody, horseradish peroxidase-labeled goat anti-mouse IgG dilution was added at 100 μL/well, and shaken at 37° C. for 0.5 hour. […] (Ultrasound was required for the dissolution of OPD, and the chromogenic solution needed to be prepared when used). 2 M H2SO4 was added at 50 μL/well to quench the reaction and a tunable wavelength microplate reader SPECTRA MAX 190 was used at a wavelength of 490 nm.
# (§3) The inhibition rate of the sample was obtained by the following formula:
# (§4) The IC50 value was obtained by four-parameter regression using the software attached to the microplate reader.
# [2] = target: FGFR1 kinase domain recombinant protein (Homo sapiens, UniProt P11362); assay: FGFR1 enzyme activity at molecular level (ELISA, Poly(Glu,Tyr) 4:1 substrate)
# Chain of FGFR1 kinase domain recombinant protein (P11362 478-767 limits assumed): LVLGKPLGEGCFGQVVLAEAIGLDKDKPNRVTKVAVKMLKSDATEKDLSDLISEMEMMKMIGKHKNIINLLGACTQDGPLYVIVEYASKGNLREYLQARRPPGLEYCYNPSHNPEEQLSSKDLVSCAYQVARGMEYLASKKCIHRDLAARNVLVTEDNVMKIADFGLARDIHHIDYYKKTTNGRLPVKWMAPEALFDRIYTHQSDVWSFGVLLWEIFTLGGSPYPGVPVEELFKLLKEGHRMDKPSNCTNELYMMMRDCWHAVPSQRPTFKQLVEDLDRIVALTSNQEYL
# Description: as §1, §2, §3, §4
# Chain of FGFR4 kinase domain recombinant protein (P22455 467-755 limits assumed): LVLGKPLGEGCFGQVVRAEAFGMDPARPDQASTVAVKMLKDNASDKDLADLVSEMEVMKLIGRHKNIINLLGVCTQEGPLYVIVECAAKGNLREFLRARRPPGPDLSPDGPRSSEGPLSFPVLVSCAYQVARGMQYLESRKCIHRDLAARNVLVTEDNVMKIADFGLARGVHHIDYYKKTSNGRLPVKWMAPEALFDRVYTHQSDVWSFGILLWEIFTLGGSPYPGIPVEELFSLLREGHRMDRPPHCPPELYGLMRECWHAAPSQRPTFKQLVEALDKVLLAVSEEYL
IC50 [1] [nM],IC50 [2] [nM],Structure (SMILES),"FGFR inhibitory activity (in words) ([2]; FGFR1 and FGFR4 enzymes, conclusion from Table 2)"
< 10,< 10,"C=C(CN1CCOCC1)C(=O)N1CC(n2nc(-c3cc4cc(C)cc(OC)c4s3)c3c(N)ncnc32)C1 [NO. 55, 1-(3-(4-amino-3-(7-methoxy-5-methylbenzothiophene-2-yl)-1H-pyrazole[3,4-d]pyrimidin-yl)azetidine-1-yl)-2-(morpholinemethylene)prop-2-en-1-one]",–
–,< 10,C=CC(=O)N1C[C@@H](n2nc(-c3cc4cc(C)cc(OC)c4s3)c3c(N)ncnc32)C[C@H]1C(=O)N(C)CCN(C)C [NO. 75],–
10 to 100,10 to 100,"C=CC(=O)N1CCC(Cn2cc(-c3cc4cc(C)cc(OC)c4s3)c3c(N)ncnc32)C1 (stereo not drawn) [NO. 20, 1-(3-((4-amino-5-(7-methoxy-5-methylbenzothiophene-2-yl)-7H-pyrrole [2,3-d]pyrimidine-7-yl)methyl)pyrrolidine-1-yl)prop-2-en-1-one]",–
10 to 100,< 10,"COCCN(C)C/C=C/C(=O)N1CCC(n2cc(-c3cc4cc(C)cc(OC)c4s3)c3c(N)ncnc32)C1 (stereo not drawn) [NO. 81, (E)-1-(3-(4-amino-5-(7-methoxy-5-methylbenzothiophene-2-yl)-7H-pyrrole[2,3-d]pyrimidine-7-yl)pyrrolidine-1-yl)-4-((2-methoxyethyl) (methyl)amino)but-2-en-1-one]",–
< 10,10 to 100,"C=C(CN1CCN(C)CC1)C(=O)N1CC[C@H](n2cc(-c3cc4cc(C)cc(OC)c4s3)c3c(N)ncnc32)C1 [NO. 49, (S) 1-(3-(4-amino-5-(7-methoxy-5-methylbenzothiophene-2-yl)-7H-pyrrole[2,3-d]pyrimidine-7-yl)pyrrolidine-1-yl)-2-((4-methylpiperazin-1-yl)-methylene)prop-2-en-1-one]",–
10 to 100,< 10,"COc1cc(C)cc2cc(-c3cn(C4CCN(C(=O)/C=C/CN5CCCCC5)C4)c4ncnc(N)c34)sc12 (stereo not drawn) [NO. 8, (E) 1-(3-(4-amino-5-(7-methoxy-5-methylbenzothiophene-2-yl)-7H-pyrrole[2,3-d]pyrimidine-7-yl)pyrrolidine-1-yl)-4-(piperidine-1-yl)but-2-en-1-one]",–
> 100,10 to 100,"COc1cc(C)cc2cc(-c3cn(C4CCN(C(=O)OC(C)(C)C)C4)c4ncnc(N)c34)sc12 (stereo not drawn) [NO. 10, tert-butyl 3-(4-amino-5-(7-methoxy-5-methylbenzothiophene-2-yl)-7H-pyrrole[2,3-d]pyrimidine-7-yl) pyrrolidine-1-formate]",–
< 10,10 to 100,"C=C(CN(CC)CC)C(=O)N1CC[C@H](n2cc(-c3cc4cc(C)cc(OC)c4s3)c3c(N)ncnc32)C1 [NO. 46, (S) 1-(3-(4-amino-5-(7-methoxy-5-methylbenzothiophene-2-yl)-7H-pyrrole[2,3-d]pyrimidine-7-yl)pyrrolidine-1-yl)-2-((diethylamino)methylene)prop-2-en-1-one]",–
–,< 10,"C=CC(=O)N1CC(n2cc(-c3cc4cc(C)cc(OC)c4s3)c3c(N)ncnc32)CC1CO (stereo not drawn) [NO. 70, 1-(4-(4-amino-5-(7-methoxy-5-methylbenzothiophene-2-yl)-7H-pyrrole[2,3-d]pyrimidine-7-yl)-2-(hydroxymethyl)pyrrolidine-1-yl)prop-2-en-1-one]",–
10 to 100,< 10,"CCN(C)C/C=C/C(=O)N1CCC(n2cc(-c3cc4cc(C)cc(OC)c4s3)c3c(N)ncnc32)C1 (stereo not drawn) [NO. 5, (E) 1-(3-(4-amino-5-(7-methoxy-5-methylbenzothiophene-2-yl)-7H-pyrrole[2,3-d]pyrimidine-7-yl)pyrrolidine-1-yl)-4-(ethyl(methy)amino)but-2-en-1-one]",–
< 10,10 to 100,"C=C(CN1CCCCC1)C(=O)N1CC[C@H](n2cc(-c3cc4cc(C)cc(OC)c4s3)c3c(N)ncnc32)C1 [NO. 48, (S) 1-(3-(4-amino-5-(7-methoxy-5-methylbenzothiophene-2-yl)-7H-pyrrole[2,3-d]pyrimidine-7-yl)pyrrolidine-1-yl)-2-(piperidine-1-methylene)prop-2-en-1-one]",–
10 to 100,< 10,"COc1cc(C)cc2cc(-c3cn(C4CCN(C(=O)/C=C/CN5CCCC5)C4)c4ncnc(N)c34)sc12 (stereo not drawn) [NO. 7, (E)1-(3-(4-amino-5-(7-methoxy-5-methylbenzothiophene-2-yl)-7H-pyrrole[2,3-d]pyrimidine-7-yl)pyrrolidine-1-yl)-4-(pyrrolidine-1-yl)but-2-en-1-one]",–
> 100,> 100,"C=CC(=O)NCCn1nc(-c2cc3cc(C)cc(OC)c3s2)c2c(N)ncnc21 [NO. 50, N-(2-(4-amino-3-(7-methoxy-5-methylbenzothiophen-2-yl)-1H-pyrazole[3,4-d]pyrimidine-1-yl)ethyl)acrylamide]",–
10 to 100,< 10,"COc1cc(C)cc2cc(-c3cn(C4CCN(C(=O)/C=C/CN5CCC(O)CC5)C4)c4ncnc(N)c34)sc12 (stereo not drawn) [NO. 77, (E)-1-(3-(4-amino-5-(7-methoxy-5-methylbenzothiophene-2-yl)-7H-pyrrole[2,3-d]pyrimidine-7-yl)pyrrolidine-1-yl)-4-(4-hydroxypiperidine-1-yl)but-2-en-1-one]",–
10 to 100,< 10,"C=CC(=O)Nc1cccc(Cn2nc(-c3cc4cc(C)cc(OC)c4s3)c3c(N)ncnc32)c1 [NO. 78, N-(3-((4-amino-3-(7-methoxy-5-methylbenzothiophene-2-yl)-1H-pyrazole[3,4-d]pyrimidine-1-yl)methyl)phenyl)acrylamide]",–
> 100,> 100,"C=CC(=O)N1CCC(n2cc(-c3ccc4c(N)n[nH]c4c3)c3c(N)ncnc32)C1 (stereo not drawn) [NO. 80, 1-(3-(4-amino-5-(3-amino-1H-indazol-6-yl)-7H-pyrrole[2,3-d]pyrimidine-7-yl)pyrrolidine-1-yl)prop-2-en-1-one]",–
10 to 100,> 100,"C=CC(=O)N1CC[C@H](n2cc(-c3cnc4ccccc4c3)c3c(N)ncnc32)C1 [Control compound, (S)-1-(3-(4-amino-5-(quinolin-3-yl)-7H-pyrrole[2,3-d]pyrimidine-7-yl)pyrrolidine-1-yl)prop-2-en-1-one, reference compound]",substantially no FGFR inhibitory activity
< 10,< 10,"C=C(CN1CCCC1)C(=O)N1CC(n2cc(-c3cc4cc(C)cc(OC)c4s3)c3c(N)ncnc32)C1 [NO. 44, 1-(3-(4-amino-5-(7-methoxy-5-methylbenzothiophene-2-yl)-7H-pyrrole[2,3-d]pyrimidine-7-yl)azetidine-1-yl)-2-(pyrrolidine-1-methylene)prop-2-en-1-one]",–
> 100,–,"C=CC(=O)N1CC(n2cc(-c3cc4cc(C)cc(OC)c4o3)c3c(N)ncnc32)C1 [NO. 23, 1-(3-(4-amino-5-(7-methoxy-5-methylbenzofuran-2-yl)-7H-pyrrole[2,3-d]pyrimidine-7-yl)azetidine-1-yl)prop-2-en-1-one]",–
< 10,< 10,"C=C(CN(C)C)C(=O)N1CC(n2cc(-c3cc4cc(C)cc(OC)c4s3)c3c(N)ncnc32)C1 [NO. 53, 1-(3-(4-amino-5-(7-methoxy-5-methylbenzothiophene-2-yl)-7H-pyrrole[2,3-d]pyrimidine-7-yl)azetidine-1-yl)-2-((dimethylamino)methylene)prop-2-en-1-one]",–
> 100,10 to 100,"COc1cc(C)cc2cc(-c3cn(CCN4CCOCC4)c4ncnc(N)c34)sc12 [NO. 76, 5-(7-methoxy-5-methylbenzothiophene-2-yl)-7-(2-morpholineethyl)-7H-pyrrole[2,3-d]p yrimidine-4-amine]",–
< 10,< 10,"C=C(CN(CC)CC)C(=O)N1CC(n2cc(-c3cc4cc(C)cc(OC)c4s3)c3c(N)ncnc32)C1 [NO. 51, 1-(3-(4-amino-5-(7-methoxy-5-methylbenzothiophene-2-yl)-7H-pyrrole[2,3-d]pyrimidine-7-yl)azetidine-1-yl)-2-((diethylamino)methylene)prop-2-en-1-one]",–
10 to 100,< 10,"COc1cc(C)cc2cc(-c3cn(C4CCN(C(=O)/C=C/CN(C)C(C)C)C4)c4ncnc(N)c34)sc12 (stereo not drawn) [NO. 6, (E)1-(3-(4-amino-5-(7-methoxy-5-methylbenzothiophene-2-yl)-7H-pyrrole[2,3-d]pyrimidine-7-yl)pyrrolidine-1-yl)-4-(isopropyl(methyl)amino)but-2-en-1-one]",–
10 to 100,< 10,"C=CC(=O)N1CC[C@@H](n2cc(-c3cc4cc(C)cc(OC)c4s3)c3c(N)ncnc32)C1 [NO. 11, (R)-1-(3-(4-amino-5-(7-methoxy-5-methylbenzothiophene-2-yl)-7H-pyrrole[2,3-d]pyrimidine-7-yl)pyrrolidine-1-yl)prop-2-en-1-one]",–
–,< 10,C=CC(=O)N1CCC(n2c(Cl)c(-c3cc4cc(C)cc(OC)c4s3)c3c(N)ncnc32)C1 (stereo not drawn) [NO. 71],–
–,< 10,"C=CC(=O)N1CC[C@H](n2cc(-c3cc4cc(F)cc(OC)c4s3)c3c(N)ncnc32)C1 [NO. 60, (S)-1-(3-(4-amino-5-(5-fluoro-7-methoxybenzothiophene-2-yl)-7H-pyrrole[2,3-d]pyrimidine-7-yl)pyrrolidine-1-yl)prop-2-en-1-one]",–
–,< 10,"C=CC(=O)N1CC[C@H](n2cc(-c3cc4cc(Cl)cc(OC)c4s3)c3c(N)ncnc32)C1 [NO. 59, (S)-1-(3-(4-amino-5-(5-chloro-7-methoxybenzothiophene-2-yl)-7H-pyrrole[2,3-d]pyrimidine-7-yl)pyrrolidine-1-yl)prop-2-en-1-one]",–
–,> 100,"C=CC(=O)N1CCC(n2cc(-c3cc4cc(C)cc(OC)c4s3)c3c(N)nc(OCCN4CCOCC4)nc32)C1 (stereo not drawn) [NO. 66, 1-(3-(4-amino-5-(7-methoxy-5-methylbenzothiophene-2-yl)-2-(2-morpholineethoxy)-7H-pyrrole [2,3-d]pyrimidine-7-yl)pyrrolidine-1-yl)prop-2-en-1-one]",–
–,< 10,"C=CC(=O)N1CC[C@H](n2cc(-c3cc4cc(Br)cc(OC)c4s3)c3c(N)ncnc32)C1 [NO. 62, (S)-1-(3-(4-amino-5-(5-bromo-7-methoxybenzothiophene-2-yl)-7H-pyrrole[2,3-d]pyrimidine-7-yl)pyrrolidine-1-yl)prop-2-en-1-one]",–
